Like-named read-outs stand apart in the source and are kept apart here.
How the values were obtained:
Format in all cases: biochemical
PI3Kβ = target: T1, PI3Kβ (Homo sapiens, UniProt P42338); test: TR-FRET enzymatic activity assay, PI3Kβ
T1 construct: made in house

PI3Kδ = target: T2, PI3Kδ (Homo sapiens, UniProt O00329); test: TR-FRET enzymatic activity assay, PI3Kδ
T2 construct: made in house

PI3Kγ = target: T3, PI3Kγ (Homo sapiens, UniProt P48736); test: TR-FRET enzymatic activity assay, PI3Kγ; conditions: read-out: PI3Kγ IC50
T3 construct: made in house
T3 sequence (P48736 whole entry): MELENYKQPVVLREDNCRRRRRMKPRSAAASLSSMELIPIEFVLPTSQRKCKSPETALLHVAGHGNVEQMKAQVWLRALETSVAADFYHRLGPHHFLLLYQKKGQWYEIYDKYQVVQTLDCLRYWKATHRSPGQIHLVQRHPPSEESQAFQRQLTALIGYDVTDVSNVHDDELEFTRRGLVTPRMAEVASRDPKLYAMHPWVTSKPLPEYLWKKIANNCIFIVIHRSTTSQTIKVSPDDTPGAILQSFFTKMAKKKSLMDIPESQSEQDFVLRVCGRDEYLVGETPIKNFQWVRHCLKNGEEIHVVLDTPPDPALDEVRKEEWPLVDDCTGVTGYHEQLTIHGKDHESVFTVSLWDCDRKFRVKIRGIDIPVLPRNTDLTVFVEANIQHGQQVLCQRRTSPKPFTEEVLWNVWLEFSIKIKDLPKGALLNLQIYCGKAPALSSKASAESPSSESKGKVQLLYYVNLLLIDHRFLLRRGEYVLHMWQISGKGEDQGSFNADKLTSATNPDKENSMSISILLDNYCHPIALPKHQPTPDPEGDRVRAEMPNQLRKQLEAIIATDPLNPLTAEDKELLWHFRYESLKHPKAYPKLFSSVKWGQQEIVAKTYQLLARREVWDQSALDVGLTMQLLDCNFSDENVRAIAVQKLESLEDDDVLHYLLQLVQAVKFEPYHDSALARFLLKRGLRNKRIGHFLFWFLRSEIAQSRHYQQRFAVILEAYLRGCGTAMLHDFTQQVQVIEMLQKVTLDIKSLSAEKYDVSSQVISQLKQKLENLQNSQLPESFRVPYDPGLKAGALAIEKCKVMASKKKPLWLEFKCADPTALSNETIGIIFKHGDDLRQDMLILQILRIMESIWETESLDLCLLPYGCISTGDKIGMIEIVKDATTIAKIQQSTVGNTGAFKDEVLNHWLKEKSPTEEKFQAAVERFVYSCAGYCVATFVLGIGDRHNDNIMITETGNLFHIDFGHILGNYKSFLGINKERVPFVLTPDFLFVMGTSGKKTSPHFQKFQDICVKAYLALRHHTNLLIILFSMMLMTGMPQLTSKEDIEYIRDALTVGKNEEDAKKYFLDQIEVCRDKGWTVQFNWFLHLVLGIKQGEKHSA
Summary of the method: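 Enzymatic activity against the PI3K isoforms was measured using a time-resolved fluorescence resonance energy transfer (TR-FRET) assay.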

[1] = Table 2, TR-FRET, 2x Km ATP, 30 minutes at 25° C.

T1 sequence (P42338 whole entry): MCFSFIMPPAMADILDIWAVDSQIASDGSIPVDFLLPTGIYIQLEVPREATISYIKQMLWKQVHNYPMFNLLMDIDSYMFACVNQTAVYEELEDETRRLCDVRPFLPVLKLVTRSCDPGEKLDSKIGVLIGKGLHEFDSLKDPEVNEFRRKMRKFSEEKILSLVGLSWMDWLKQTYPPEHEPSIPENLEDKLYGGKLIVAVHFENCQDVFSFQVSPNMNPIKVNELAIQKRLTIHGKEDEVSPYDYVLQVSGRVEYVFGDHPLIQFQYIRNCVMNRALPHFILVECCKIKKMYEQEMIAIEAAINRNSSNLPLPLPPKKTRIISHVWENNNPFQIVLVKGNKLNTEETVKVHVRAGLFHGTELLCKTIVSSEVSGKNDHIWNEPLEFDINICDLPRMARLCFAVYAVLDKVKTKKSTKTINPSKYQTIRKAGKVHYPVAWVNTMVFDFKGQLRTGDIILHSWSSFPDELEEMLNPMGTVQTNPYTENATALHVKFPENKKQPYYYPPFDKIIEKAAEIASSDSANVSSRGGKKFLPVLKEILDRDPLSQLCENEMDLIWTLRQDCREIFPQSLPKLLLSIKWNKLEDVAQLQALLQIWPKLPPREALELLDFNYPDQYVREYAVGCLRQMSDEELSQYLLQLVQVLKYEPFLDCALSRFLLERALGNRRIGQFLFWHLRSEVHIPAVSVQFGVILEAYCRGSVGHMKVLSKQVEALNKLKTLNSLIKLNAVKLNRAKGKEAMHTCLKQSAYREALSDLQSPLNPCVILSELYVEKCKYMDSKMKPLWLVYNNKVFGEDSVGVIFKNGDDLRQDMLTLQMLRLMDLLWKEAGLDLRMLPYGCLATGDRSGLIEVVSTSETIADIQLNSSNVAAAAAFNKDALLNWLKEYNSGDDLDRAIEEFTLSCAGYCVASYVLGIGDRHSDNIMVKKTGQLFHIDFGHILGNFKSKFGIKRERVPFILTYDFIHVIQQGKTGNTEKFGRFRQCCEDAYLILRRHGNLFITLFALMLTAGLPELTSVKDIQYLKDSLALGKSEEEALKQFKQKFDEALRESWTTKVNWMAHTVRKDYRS
T1 sequence (P27986 whole entry partner): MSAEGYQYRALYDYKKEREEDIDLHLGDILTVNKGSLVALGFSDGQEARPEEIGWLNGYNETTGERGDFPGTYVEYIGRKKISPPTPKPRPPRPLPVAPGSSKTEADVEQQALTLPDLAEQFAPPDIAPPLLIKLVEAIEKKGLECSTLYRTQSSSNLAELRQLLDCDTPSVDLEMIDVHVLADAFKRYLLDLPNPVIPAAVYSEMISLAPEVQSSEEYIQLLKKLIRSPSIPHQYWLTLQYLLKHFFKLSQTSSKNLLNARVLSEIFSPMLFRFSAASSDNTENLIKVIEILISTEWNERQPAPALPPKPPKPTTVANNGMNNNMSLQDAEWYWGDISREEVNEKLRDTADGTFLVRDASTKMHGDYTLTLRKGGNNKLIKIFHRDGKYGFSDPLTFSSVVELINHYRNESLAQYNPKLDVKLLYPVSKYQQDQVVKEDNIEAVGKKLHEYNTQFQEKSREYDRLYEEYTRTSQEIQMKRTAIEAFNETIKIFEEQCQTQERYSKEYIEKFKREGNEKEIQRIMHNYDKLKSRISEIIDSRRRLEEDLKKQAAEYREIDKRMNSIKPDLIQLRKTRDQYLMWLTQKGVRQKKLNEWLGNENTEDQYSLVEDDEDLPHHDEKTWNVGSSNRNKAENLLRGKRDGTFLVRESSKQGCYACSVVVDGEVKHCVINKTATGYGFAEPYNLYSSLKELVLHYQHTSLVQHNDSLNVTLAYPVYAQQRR
T2 sequence (O00329 whole entry): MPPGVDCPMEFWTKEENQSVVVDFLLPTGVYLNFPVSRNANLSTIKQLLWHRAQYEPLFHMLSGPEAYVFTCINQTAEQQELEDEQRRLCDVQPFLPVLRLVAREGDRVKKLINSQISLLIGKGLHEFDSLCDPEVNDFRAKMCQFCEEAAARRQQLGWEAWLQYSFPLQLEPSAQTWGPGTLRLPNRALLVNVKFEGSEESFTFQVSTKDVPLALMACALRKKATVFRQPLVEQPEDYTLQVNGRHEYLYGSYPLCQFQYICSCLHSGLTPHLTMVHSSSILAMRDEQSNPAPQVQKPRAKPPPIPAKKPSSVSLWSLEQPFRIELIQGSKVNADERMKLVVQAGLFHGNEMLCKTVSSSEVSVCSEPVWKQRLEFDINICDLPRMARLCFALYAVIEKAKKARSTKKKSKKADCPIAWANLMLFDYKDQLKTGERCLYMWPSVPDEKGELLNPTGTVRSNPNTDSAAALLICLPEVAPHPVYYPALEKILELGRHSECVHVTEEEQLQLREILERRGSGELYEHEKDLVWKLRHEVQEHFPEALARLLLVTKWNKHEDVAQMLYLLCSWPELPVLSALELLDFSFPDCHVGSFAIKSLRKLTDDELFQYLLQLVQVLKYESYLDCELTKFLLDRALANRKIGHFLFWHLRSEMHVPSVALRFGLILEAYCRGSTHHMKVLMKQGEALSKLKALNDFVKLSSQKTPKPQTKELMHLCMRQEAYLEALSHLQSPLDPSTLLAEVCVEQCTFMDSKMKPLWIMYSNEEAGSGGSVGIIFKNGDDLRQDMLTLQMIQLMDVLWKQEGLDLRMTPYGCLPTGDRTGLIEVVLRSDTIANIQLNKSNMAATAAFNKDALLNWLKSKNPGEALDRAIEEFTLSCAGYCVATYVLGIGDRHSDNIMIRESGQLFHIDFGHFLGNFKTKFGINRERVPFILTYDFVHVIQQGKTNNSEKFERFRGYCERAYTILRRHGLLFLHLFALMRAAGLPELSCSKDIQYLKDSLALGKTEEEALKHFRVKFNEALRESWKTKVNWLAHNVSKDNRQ
T2 sequence (P27986 whole entry partner): as the sequence (P27986 whole entry partner) above

Row | SMILES | IC50 (PI3Kβ; [1]) [nM] | IC50 (PI3Kδ; [1]) [nM] | IC50 (PI3Kγ; [1]) [nM] | IC50 (PI3Kβ; Table 2a, same assay) [nM] | IC50 (PI3Kδ; Table 2a, same assay) [nM] | IC50 (PI3Kγ; Table 2a, same assay) [nM] | IC50 (PI3Kγ) [nM]
1 | N#Cc1c(N)nc(N)nc1N[C@H](c1nc2cccc(Cl)c2c(=O)n1-c1cn[nH]c1)C1CC1 [Compound 17, (S)-2,4-diamino-6-(((5-chloro-4-oxo-3-(1H-pyrazol-4-yl)-3,4-dihydroquinazolin-2-yl)(cyclopropyl)methyl)amino)pyrimidine-5-carbonitrile] | 2 | 0.6 | 67 |  |  |  | 
2 | C[C@H](Nc1nc(N)nc(N)c1C#N)c1nc2cccc(C(F)F)c2c(=O)n1-c1cn[nH]c1 [Compound 212, (S)-2,4-diamino-6-((1-(5-(difluoromethyl)-4-oxo-3-(1H-pyrazol-4-yl)-3,4-dihydroquinazolin-2-yl)ethyl)amino)pyrimidine-5-carbonitrile] |  |  |  | 1 | 0.7 | 34 | 
3 | C[C@H](Nc1nc(N)nc(N)c1C#N)c1nc2cccc(Cl)c2c(=O)n1-c1ccc[nH]1 [Compound 289, (S)-2,4-diamino-6-((1-(5-chloro-4-oxo-3-(1H-pyrrol-2-yl)-3,4-dihydroquinazolin-2-yl)ethyl)amino)pyrimidine-5-carbonitrile] |  |  |  | 5 | 0.2 | 12 | 
4 | C[C@H](Nc1nc(N)nc(N)c1Cl)c1nc2cccc(Cl)c2c(=O)n1-c1cc(Cl)[nH]n1 [Compound 154, (S)-5-chloro-3-(5-chloro-1H-pyrazol-3-yl)-2-(1-((2,6-diamino-5-chloropyrimidin-4-yl)amino)ethyl)quinazolin-4(3H)-one] |  |  |  | 100 | 13 | 3300 | 
5 | C[C@H](Nc1nc(N)nc(N)c1Cl)c1nc2c(Cl)ccc(Cl)c2c(=O)n1-c1cn[nH]c1 [Compound 158, (S)-5,8-dichloro-2-(1-((2,6-diamino-5-chloropyrimidin-4-yl)amino)ethyl)-3-(1H-pyrazol-4-yl)quinazolin-4(3H)-one] |  |  |  | 83 | 10 | 5200 | 
6 | C[C@H](Nc1ncnc(N)c1Cl)c1nc2cccc(Cl)c2c(=O)n1-c1cc[nH]n1 [Compound 164, (S)-2-(1-((6-amino-5-chloropyrimidin-4-yl)amino)ethyl)-5-chloro-3-(1H-pyrazol-3-yl)quinazolin-4(3H)-one] |  |  |  | 3 | 0.6 | 4300 | 
7 | N#Cc1c(N[C@H](c2nc3c(F)cc(F)cc3c(=O)n2-c2cc[nH]n2)C2CC2)nc(N)nc1C(F)F [Compound 195, (S)-2-amino-4-((cyclopropyl(6,8-difluoro-4-oxo-3-(1H-pyrazol-3-yl)-3,4-dihydroquinazolin-2-yl)methyl)amino)-6-(difluoromethyl)pyrimidine-5-carbonitrile] |  |  |  | 42 | 24 | 3800 | 
8 | C[C@H](Nc1ncnc2occc12)c1nc2cccc(Cl)c2c(=O)n1-c1cc[nH]n1 [Compound 9, (S)-5-chloro-2-(1-(furo[2,3-d]pyrimidin-4-ylamino)ethyl)-3-(1H-pyrazol-3-yl)quinazolin-4(3H)-one] | 940 | 140 |  |  |  |  | > 10000
9 | Nc1nc(N)c(Cl)c(N[C@H](c2nc3c(Cl)cc(F)cc3c(=O)n2-c2c[nH]cn2)C2CC2)n1 [Compound 280, (S)-8-chloro-2-(cyclopropyl((2,6-diamino-5-chloropyrimidin-4-yl)amino)methyl)-6-fluoro-3-(1H-imidazol-4-yl)quinazolin-4(3H)-one] |  |  |  | 370 | 48 | > 10000 | 
10 | C[C@H](Nc1nc(N)nc(N)c1Cl)c1nc2c(C(F)F)cc(F)cc2c(=O)n1-c1cc[nH]n1 [Compound 141, (S)-2-(1-((2,6-diamino-5-chloropyrimidin-4-yl)amino)ethyl)-8-(difluoromethyl)-6-fluoro-3-(1H-pyrazol-3-yl)quinazolin-4(3H)-one] |  |  |  | 130 | 110 | > 10000 | 
11 | Cc1c[nH]nc1-n1c([C@H](C)Nc2ncnc(N)c2C#N)nc2cccc(Cl)c2c1=O [Compound 3, (S)-4-amino-6-((1-(5-chloro-3-(4-methyl-1H-pyrazol-3-yl)-4-oxo-3,4-dihydroquinazolin-2-yl)ethyl)amino)pyrimidine-5-carbonitrile] | 55 | 2 | 3000 |  |  |  | 
12 | N#Cc1c(N)nc(N)nc1N[C@@H](c1ccccc1)c1nc2cccc(Cl)c2c(=O)n1-c1cn[nH]c1 [Compound 106, (S)-2,4-diamino-6-(((5-chloro-4-oxo-3-(1H-pyrazol-4-yl)-3,4-dihydroquinazolin-2-yl)(phenyl)methyl)amino)pyrimidine-5-carbonitrile] | 4 | 2 | 210 |  |  |  | 

Further lines, results first:

Row | IC50 (PI3Kβ; [1]) [nM] | IC50 (PI3Kδ; [1]) [nM] | IC50 (PI3Kγ; [1]) [nM] | IC50 (PI3Kβ; Table 2a, same assay) [nM] | IC50 (PI3Kδ; Table 2a, same assay) [nM] | IC50 (PI3Kγ; Table 2a, same assay) [nM] | IC50 (PI3Kγ) [nM] | SMILES
13 | 220 | 51 |  |  |  |  | > 10000 | Nc1nc(N)c(Cl)c(N[C@H](c2nc3c(F)cccc3c(=O)n2-c2cc[nH]n2)C2CC2)n1 [Compound 12, (S)-2-(cyclopropyl((2,6-diamino-5-chloropyrimidin-4-yl)amino)methyl)-8-fluoro-3-(1H-pyrazol-3-yl)quinazolin-4(3H)-one]
14 |  |  |  | 0.8 | 0.3 | 230 |  | C[C@H](Nc1nc(N)nc(N)c1C#N)c1nc2c(Cl)ccc(Cl)c2c(=O)n1-c1c[nH]cn1 [Compound 286, (S)-2,4-diamino-6-((1-(5,8-dichloro-3-(1H-imidazol-4-yl)-4-oxo-3,4-dihydroquinazolin-2-yl)ethyl)amino)pyrimidine-5-carbonitrile]
15 | 620 | 100 | 8700 |  |  |  |  | CC[C@H](Nc1ncnc2scnc12)c1nc2cccc(C#N)c2c(=O)n1-c1cn[nH]c1 [Compound 103, (S)-4-oxo-3-(1H-pyrazol-4-yl)-2-(1-(thiazolo[5,4-d]pyrimidin-7-ylamino)propyl)-3,4-dihydroquinazoline-5-carbonitrile]
16 | 30 | 14 |  |  |  |  | > 10000 | Nc1nc(N)c(Cl)c(N[C@H](c2nc3c(F)ccc(Cl)c3c(=O)n2-c2cc[nH]n2)C2CC2)n1 [Compound 70, (S)-5-chloro-2-(cyclopropyl((2,6-diamino-5-chloropyrimidin-4-yl)amino)methyl)-8-fluoro-3-(1H-pyrazol-3-yl)quinazolin-4(3H)-one]
17 |  |  |  | 2 | 2 | 2000 |  | N#Cc1c(N)nc(N)nc1N[C@H](c1nc2cccc(Cl)c2c(=O)n1-c1cc[nH]n1)C1CCC1 [Compound 128, (S)-2,4-diamino-6-(((5-chloro-4-oxo-3-(1H-pyrazol-3-yl)-3,4-dihydroquinazolin-2-yl)(cyclobutyl)methyl)amino)pyrimidine-5-carbonitrile]
18 |  |  |  | 75 | 42 | > 10000 |  | Nc1nc(N)c(Cl)c(N[C@H](c2nc3cccc(C(F)F)c3c(=O)n2-c2cc[nH]n2)C2CCC2)n1 [Compound 132, (S)-2-(cyclobutyl((2,6-diamino-5-chloropyrimidin-4-yl)amino)methyl)-5-(difluoromethyl)-3-(1H-pyrazol-3-yl)quinazolin-4(3H)-one]
19 | 12 | 16 |  |  |  |  | > 10000 | CC[C@H](Nc1nc(N)nc2[nH]nc(Br)c12)c1nc2c(Cl)ccc(Cl)c2c(=O)n1-c1cc[nH]n1 [Compound 81, (S)-2-(1-((6-amino-3-bromo-1H-pyrazolo[3,4-d]pyrimidin-4-yl)amino)propyl)-5,8-dichloro-3-(1H-pyrazol-3-yl)quinazolin-4(3H)-one]
20 |  |  |  | 700 | 540 | > 10000 |  | C[C@H](Nc1nc(C(F)F)nc(N)c1C#N)c1nc2cccc(Cl)c2c(=O)n1-c1cc[nH]n1 [Compound 197, (S)-4-amino-6-((1-(5-chloro-4-oxo-3-(1H-pyrazol-3-yl)-3,4-dihydroquinazolin-2-yl)ethyl)amino)-2-(difluoromethyl)pyrimidine-5-carbonitrile]
21 |  |  |  | 53 | 8 | 3000 |  | Nc1nc(N)c(Cl)c(N[C@H](c2nc3cccc(Cl)c3c(=O)n2-c2c[nH]cn2)C2CC2)n1 [Compound 287, (S)-5-chloro-2-(cyclopropyl((2,6-diamino-5-chloropyrimidin-4-yl)amino)methyl)-3-(1H-imidazol-4-yl)quinazolin-4(3H)-one]
22 |  |  |  | 2 | 0.7 | 190 |  | C[C@H](Nc1nc(N)nc(N)c1C#N)c1nc2cccc(Cl)c2c(=O)n1-c1c[nH]cn1 [Compound 288, (S)-2,4-diamino-6-((1-(5-chloro-3-(1H-imidazol-4-yl)-4-oxo-3,4-dihydroquinazolin-2-yl)ethyl)amino)pyrimidine-5-carbonitrile]
23 | 1 | 1 | 160 |  |  |  |  | N#Cc1c(N)nc(N)nc1N[C@H](c1nc2c(Cl)ccc(Cl)c2c(=O)n1-c1cn[nH]c1)C1CC1 [Compound 31, (S)-2,4-diamino-6-((cyclopropyl(5,8-dichloro-4-oxo-3-(1H-pyrazol-4-yl)-3,4-dihydroquinazolin-2-yl)methyl)amino)pyrimidine-5-carbonitrile]
24 |  |  |  | 537 | 300 | > 10000 |  | C[C@H](Nc1nc(N)nc(C(F)F)c1Cl)c1nc2cccc(Cl)c2c(=O)n1-c1cc[nH]n1 [Compound 225, (S)-2-(1-((2-amino-5-chloro-6-(difluoromethyl)pyrimidin-4-yl)amino)ethyl)-5-chloro-3-(1H-pyrazol-3-yl)quinazolin-4(3H)-one]
25 | 84 | 10 |  |  |  |  | > 10000 | CC[C@H](Nc1ncnc2cccnc12)c1nc2c(Cl)ccc(Cl)c2c(=O)n1-c1cc[nH]n1 [Compound 44, (S)-5,8-dichloro-3-(1H-pyrazol-3-yl)-2-(1-(pyrido[3,2-d]pyrimidin-4-ylamino)propyl)quinazolin-4(3H)-one]
26 |  |  |  | 6 | 2 | 3000 |  | C[C@H](Nc1ncnc2scc(Br)c12)c1nc2cccc(Cl)c2c(=O)n1-c1cc[nH]n1 [Compound 150, (S)-2-(1-((5-bromothieno[2,3-d]pyrimidin-4-yl)amino)ethyl)-5-chloro-3-(1H-pyrazol-3-yl)quinazolin-4(3H)-one]
